# Positions of bridges follow the written chain, without caps; N, C: chain ends. Non-standard residues stand in square brackets, D forms with d. Residues, ends and D or L forms follow the SMILES beside them. *: point of attachment. Hexanoyl(3-OH,5-Me) = CC(C)CC(O)CC(=O)*; dNMeF = CN[C@H](Cc1ccccc1)C(=O)O
# Tests used:
# [1] = system: Enterococcus faecalis (EF1)
# Excerpt: (§1) Antibacterial activity of the antibiotic-substance-containing fraction at each fractionation stage from a culture produced from RH2180-5 and that of the antibiotic substance obtained therefrom by separation and purification thereof can be evaluated by MIC. […] For example, it is done with a broth microdilution method based on CLSI (formerly NCCLS: National Committee for Clinical Laboratory Standards).
# (§2) Antibacterial spectrum of the RH2180-5 Peak 5 Substance to various bacteria including MRSA and VRE was studied. In addition, influence of chemical resistance was also studied. For study of the latter, Staphylococcus aureus and Enterococcus faecalis were selected, wherein measurement of MIC value of each peak substance was made by a broth microdilution method based on CLSI (formerly NCCLS: National Committee for Clinical Laboratory Standards) as to Staphylococcus aureus not showing resistance to a chemical (hereinafter abbreviated as “MSSA 1”) and two kinds of MRSA showing resistance to many chemicals including methicillin (MRSA 3 and MRSA 4; see Table 3 for resistive chemicals) for Staphylococcus aureus; and as to Enterococcus faecalis not showing resistance to a chemical (hereinafter abbreviated as “EF 1”) and showing resistance to vancomycin (hereinafter abbreviated as “VRE”) for Enterococcus faecalis.
# (§3) Test microorganisms of Staphylococcus aureus and Enterococcus faecalis, the same as Test Example 1, were selected; and measurement of MIC value of each peak substance was made by a broth microdilution method based on CLSI (formerly NCCLS: National Committee for Clinical Laboratory Standards) as to MSSA 1 and EF 1, and MRSA 3, MRSA 4, and VRE, the same as Test Example 1.
# (§4) Antibacterial spectrum of the foregoing RH2180-5 Peak 5 Substance to various microorganisms including MRSA and VRE was studied. Each MIC value for the case added with 10% blood serum and for the case not added with the same was measured by a broth microdilution method based on CLSI (formerly NCCLS: National Committee for Clinical Laboratory Standards).
# [2] = system: Staphylococcus aureus (MSSA1); details: MSSA1
# Excerpt: as §1, §2, §3, §4
# [3] = system: Enterococcus faecalis (VRE)
# Excerpt: as §1, §2, §3, §4
# [4] = system: Staphylococcus aureus (MRSA4)
# Excerpt: as §1, §2, §3, §4
# [5] = system: Staphylococcus aureus (MRSA3)
# Excerpt: as §1, §2, §3, §4
# Staphylococcus aureus [6] = assay: silkworm Staphylococcus aureus infection model (therapeutic effect); format: in vivo, silkworm (larva of Bombyx mori); details: purification stages, Table 2
# Excerpt: In the present invention too, a first screening to narrow down effective strains from several tens of thousands of extraordinary large numbers of strains may be done by any method as far as the antibacterial activity can be evaluated with the said method; and thus, for example, by referring to MIC, test bodies showing the antibacterial activity to Staphylococcus aureus in culture supernatant of each strain may be picked up. This is because strains not showing the antibacterial activity at all are not in the scope of examination. Any method capable of evaluating the antibacterial activity may be used; but a method with which a strain recognized to show, with referring to MIC, the antibacterial activity to Staphylococcus aureus in culture supernatant of various test strains is picked up is preferable. […]
# Strains recognized to show the therapeutic effect in the silkworm Staphylococcus aureus infection model are further subjected to various separation and purification treatments wherein the therapeutic effect is evaluated in each operation by using the silkworm Staphylococcus aureus infection model. […]
# Staphylococcus aureus [7] = format: cell-based
# Protocol: A soil taken from various places was suspended in a physiological saline solution, and then the supernatant thereof was applied on a GA medium and a HV medium; and after incubation at 30° C., grown bacteria was separated and then cultured in an YME medium, a SGM medium, or a CDY medium at 30° C. for 5 days. Equal amount of acetone was added thereinto; and after they were suspended and centrifugally separated, the resulting supernatant was evaporated. The residue thus resulted was diluted with a physiological saline solution, and then the antibacterial activity thereof to Staphylococcus aureus was evaluated by MIC with a broth microdilution method. As a result, antibacterial activity was found in culture supernatant of 3487 strains out of 14346 strains.
# [8] = system: Smith strain of Staphylococcus aureus; assay: mouse Staphylococcus aureus infection model (therapeutic effect); format: in vivo, mouse (ICR female); details: Staphylococcus aureus, ip
# Protocol: Smith strain of Staphylococcus aureus was suspended in 7% mucin+0.2 mM ferric ammonium citrate, and 6.2×10^6 (20×LD50) thereof was administered into the peritoneal cavity of 5 mice per group (ICR female of four weeks of age). Each drug was injected hypodermically 2 hours after administration of the bacterium by the method shown below.
# Similarly, ED50 of vancomycin to the mouse model used this time was studied. […] Here, ED50 values were obtained by the probit method.
# Staphylococcus aureus [9] = assay: survived cell numbers (CFU) of Staphylococcus aureus after drug addition; format: cell-based
# Protocol: To CA-Mueller Hinton Broth medium were taken 1.8×10^8 Staphylococcus aureus, and then the foregoing RH2180-5 Peak 5 Substance (25 μg/mL), vancomycin (VM, 5 μg/mL), and gentamicin (GM, 2.5 μg/mL) were added thereinto; and then, survived cell numbers after 15 minutes, 30 minutes, 60 minutes, and 120 minutes were obtained as CFU (colony forming unit/mL).
Molecule,MIC [1],MIC [2],MIC [3],MIC [4],MIC [5],also measured
"CC[C@H](C)[C@@H]1NC(=O)[C@@H](Cc2c[nH]c3ccccc23)NC(=O)[C@@H](CCC(N)=O)NC(=O)[C@H](CCC(=O)O)NC(=O)[C@@H](CCCNC(=N)N)NC(=O)[C@H](CC(C)C)NC(=O)[C@@H](Cc2ccccc2)N(C)C(=O)CNC(=O)[C@H](CO)NC(=O)[C@@H](CCCNC(=N)N)NC(=O)[C@@H](NC(=O)CC(O)CCC(C)C)[C@@H](C)OC(=O)[C@H]([C@@H](C)O)NC1=O (single isomer, unassigned) [Peak P7]",50 µg/mL,12.5 µg/mL,25 µg/mL,12.5 µg/mL,12.5 µg/mL,–
"CC(C)CC(O)CC(=O)N[C@@H]1C(=O)N[C@H](CCCNC(=N)N)C(=O)N[C@@H](CO)C(=O)NCC(=O)N(C)[C@H](Cc2ccccc2)C(=O)N[C@@H](CC(C)C)C(=O)N[C@H](CCCNC(=N)N)C(=O)N[C@@H](CCC(=O)O)C(=O)N[C@H](CCC(N)=O)C(=O)N[C@H](Cc2c[nH]c3ccccc23)C(=O)N[C@@H](C(C)C)C(=O)N[C@@H]([C@@H](C)O)C(=O)O[C@@H]1C (stereo partly drawn) [Peak P2] ({Hexanoyl(3-OH,5-Me)}-T[dR]SG[dNMeF]L[dR]E[dQ][dW]VT; ester 1-C)",50 µg/mL,12.5 µg/mL,50 µg/mL,6.3 µg/mL,12.5 µg/mL,–
"CC[C@H](C)[C@@H]1NC(=O)[C@@H](Cc2c[nH]c3ccccc23)NC(=O)[C@@H](CCC(N)=O)NC(=O)[C@H](CCC(=O)O)NC(=O)[C@@H](CCCNC(=N)N)NC(=O)[C@H](CC(C)C)NC(=O)[C@@H](Cc2ccccc2)NC(=O)CNC(=O)[C@H](CO)NC(=O)[C@@H](CCCNC(=N)N)NC(=O)[C@@H](NC(=O)CC(O)CCCC(C)C)[C@@H](C)OC(=O)[C@H]([C@@H](C)O)NC1=O (single isomer, unassigned) [Peak P3]",50 µg/mL,25 µg/mL,50 µg/mL,25 µg/mL,25 µg/mL,–
"CC[C@H](C)[C@@H]1NC(=O)[C@@H](Cc2c[nH]c3ccccc23)NC(=O)[C@@H](CCC(N)=O)NC(=O)[C@H](CCC(=O)O)NC(=O)[C@@H](CCCNC(=N)N)NC(=O)[C@H](CC(C)C)NC(=O)[C@@H](Cc2ccccc2)N(C)C(=O)CNC(=O)[C@H](CO)NC(=O)[C@@H](CCCNC(=N)N)NC(=O)[C@@H](NC(=O)CC(O)CCCC(C)C)[C@@H](C)OC(=O)[C@H]([C@@H](C)O)NC1=O (single isomer, unassigned) [Peak P8]",50 µg/mL,12.5 µg/mL,25 µg/mL,12.5 µg/mL,12.5 µg/mL,–
"CC[C@H](C)[C@@H]1NC(=O)[C@@H](Cc2c[nH]c3ccccc23)NC(=O)[C@@H](CCC(N)=O)NC(=O)[C@H](CCC(=O)O)NC(=O)[C@@H](CCCNC(=N)N)NC(=O)[C@H](CC(C)C)NC(=O)[C@@H](Cc2ccccc2)N(C)C(=O)CNC(=O)[C@H](CO)NC(=O)[C@@H](CCCNC(=N)N)NC(=O)[C@@H](NC(=O)CC(O)CCCC(C)C)[C@@H](C)OC(=O)[C@H]([C@@H](C)O)NC1=O (single isomer, unassigned) [Peak P9]",12.5 µg/mL,–,12.5 µg/mL,–,–,ED50 (Staphylococcus aureus [6]): 0.3 μg/g-larva; MIC (Staphylococcus aureus [7]): 5 µg/mL
"CC[C@H](C)[C@@H]1NC(=O)[C@@H](Cc2c[nH]c3ccccc23)NC(=O)[C@@H](CCC(N)=O)NC(=O)[C@H](CCC(=O)O)NC(=O)[C@@H](CCCNC(=N)N)NC(=O)[C@H](CC(C)C)NC(=O)[C@@H](Cc2ccccc2)NC(=O)CNC(=O)[C@H](CO)NC(=O)[C@@H](CCCNC(=N)N)NC(=O)[C@@H](NC(=O)CC(O)CCCC(C)C)[C@@H](C)OC(=O)[C@H]([C@@H](C)O)NC1=O (single isomer, unassigned) [Peak P4]",50 µg/mL,12.5 µg/mL,25 µg/mL,12.5 µg/mL,25.0 µg/mL,–
CN[C@H](CC(C)C)C(=O)N[C@H]1C(=O)N[C@@H](CC(N)=O)C(=O)N[C@H]2C(=O)N[C@H]3C(=O)N[C@H](C(=O)N[C@H](C(=O)O)c4cc(O)cc(O)c4-c4cc3ccc4O)[C@H](O)c3ccc(c(Cl)c3)Oc3cc2cc(c3O[C@@H]2O[C@H](CO)[C@@H](O)[C@H](O)[C@H]2O[C@H]2C[C@](C)(N)[C@H](O)[C@H](C)O2)Oc2ccc(cc2Cl)[C@H]1O [Vancomycin],–,–,–,–,–,"ED50 [8]: 1.6 mg/kg; CFU/ml of S. aureus (Staphylococcus aureus [9]; 5 μg/ml, 15 minutes): 8.5 × 10^7 CFU/ml; CFU/ml of S. aureus (Staphylococcus aureus [9]; 5 μg/ml, 30 minutes): 4.9 × 10^7 CFU/ml; CFU/ml of S. aureus (Staphylococcus aureus [9]; 5 μg/ml, 60 minutes): 6.8 × 10^7 CFU/ml; CFU/ml of S. aureus (Staphylococcus aureus [9]; 5 μg/ml, 120 minutes): 3.4 × 10^7 CFU/ml"
Gentamicin [GM],–,–,–,–,–,"CFU/ml of S. aureus (Staphylococcus aureus [9]; 2.5 μg/ml, 15 minutes): 2.6 × 10^7 CFU/ml; CFU/ml of S. aureus (Staphylococcus aureus [9]; 2.5 μg/ml, 30 minutes): 7.6 × 10^5 CFU/ml; CFU/ml of S. aureus (Staphylococcus aureus [9]; 2.5 μg/ml, 60 minutes): 1.6 × 10^5 CFU/ml; CFU/ml of S. aureus (Staphylococcus aureus [9]; 2.5 μg/ml, 120 minutes): 4.0 × 10^5 CFU/ml"
